For experiment [1], the target named is Cyclin-dependent kinase 8 (Homo sapiens, UniProt P49336). The following applies: at 10 µM.
In experiment [2] the target is Mitogen-activated protein kinase kinase kinase kinase 5 (Homo sapiens) (UniProt Q9Y4K4). Description: Selectivity interaction (Ambit KINOMEscan and KiNATiv profiling in Jurkat cells) EUB0000090b MAP4K5. Type of experiment: cell-based. The following applies: at 1 µM.
For experiment [3], the target named is Serine/threonine-protein kinase VRK2 (Homo sapiens) (UniProt Q86Y07). Description: Selectivity interaction (KinomeScan (DiscoverX)) EUB0001079a VRK2. The following applies: at 1 µM.
Chain of Serine/threonine-protein kinase VRK2 (Homo sapiens) (Q86Y07 whole entry): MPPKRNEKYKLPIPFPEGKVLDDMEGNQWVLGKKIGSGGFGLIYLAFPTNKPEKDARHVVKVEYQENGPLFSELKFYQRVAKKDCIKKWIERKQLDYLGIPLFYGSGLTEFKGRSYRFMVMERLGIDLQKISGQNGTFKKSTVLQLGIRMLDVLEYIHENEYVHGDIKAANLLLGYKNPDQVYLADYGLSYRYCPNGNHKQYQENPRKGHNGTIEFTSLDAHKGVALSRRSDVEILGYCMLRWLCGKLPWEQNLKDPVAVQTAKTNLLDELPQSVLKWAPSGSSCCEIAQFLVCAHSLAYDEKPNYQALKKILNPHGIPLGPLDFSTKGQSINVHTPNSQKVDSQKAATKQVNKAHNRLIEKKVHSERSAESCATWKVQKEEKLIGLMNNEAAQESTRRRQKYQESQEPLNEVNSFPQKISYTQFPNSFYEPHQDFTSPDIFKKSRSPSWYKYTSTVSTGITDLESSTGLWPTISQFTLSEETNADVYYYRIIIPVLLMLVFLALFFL
In experiment [4] the target is Protein kinase C alpha type (Homo sapiens, UniProt P17252). The experiment in a line: Selectivity interaction (Millipore kinase profiler) EUB0000124b PRKCA. The following applies: at 10 µM.
Experiment [5] has as its target Mitogen-activated protein kinase 9 (Homo sapiens, UniProt P45984). The experiment in a line: Selectivity interaction (KinomeScan (DiscoverX)) EUB0000092b MAPK9. The following applies: at 10 µM.
Experiment [6] deals with T1, Inhibitor of nuclear factor kappa-B kinase subunit alpha (Homo sapiens) (UniProt O15111).
T1 sequence (whole entry): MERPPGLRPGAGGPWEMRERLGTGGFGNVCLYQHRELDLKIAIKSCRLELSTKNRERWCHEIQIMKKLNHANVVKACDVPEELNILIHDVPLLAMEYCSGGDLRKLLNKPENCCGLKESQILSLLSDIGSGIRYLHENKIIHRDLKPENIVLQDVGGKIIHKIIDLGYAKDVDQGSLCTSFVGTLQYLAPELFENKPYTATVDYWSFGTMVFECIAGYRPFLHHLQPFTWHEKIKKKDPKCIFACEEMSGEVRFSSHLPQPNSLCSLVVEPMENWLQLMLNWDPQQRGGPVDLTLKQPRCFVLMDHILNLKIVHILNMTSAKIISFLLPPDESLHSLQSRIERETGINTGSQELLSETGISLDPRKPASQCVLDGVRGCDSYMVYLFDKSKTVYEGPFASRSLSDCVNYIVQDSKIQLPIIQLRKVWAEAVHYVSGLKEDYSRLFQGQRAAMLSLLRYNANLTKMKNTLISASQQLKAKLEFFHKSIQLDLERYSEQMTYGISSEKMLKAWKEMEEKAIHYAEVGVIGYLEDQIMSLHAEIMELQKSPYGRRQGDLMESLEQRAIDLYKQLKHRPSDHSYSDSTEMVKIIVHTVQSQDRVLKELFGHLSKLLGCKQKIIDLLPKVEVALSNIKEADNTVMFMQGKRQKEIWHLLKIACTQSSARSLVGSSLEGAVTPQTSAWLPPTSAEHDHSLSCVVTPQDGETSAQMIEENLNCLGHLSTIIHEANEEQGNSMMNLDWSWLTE

The target of experiment [7] is T2, Serine/threonine-protein kinase 36 (Homo sapiens) (UniProt Q9NRP7).
T2 sequence (whole entry): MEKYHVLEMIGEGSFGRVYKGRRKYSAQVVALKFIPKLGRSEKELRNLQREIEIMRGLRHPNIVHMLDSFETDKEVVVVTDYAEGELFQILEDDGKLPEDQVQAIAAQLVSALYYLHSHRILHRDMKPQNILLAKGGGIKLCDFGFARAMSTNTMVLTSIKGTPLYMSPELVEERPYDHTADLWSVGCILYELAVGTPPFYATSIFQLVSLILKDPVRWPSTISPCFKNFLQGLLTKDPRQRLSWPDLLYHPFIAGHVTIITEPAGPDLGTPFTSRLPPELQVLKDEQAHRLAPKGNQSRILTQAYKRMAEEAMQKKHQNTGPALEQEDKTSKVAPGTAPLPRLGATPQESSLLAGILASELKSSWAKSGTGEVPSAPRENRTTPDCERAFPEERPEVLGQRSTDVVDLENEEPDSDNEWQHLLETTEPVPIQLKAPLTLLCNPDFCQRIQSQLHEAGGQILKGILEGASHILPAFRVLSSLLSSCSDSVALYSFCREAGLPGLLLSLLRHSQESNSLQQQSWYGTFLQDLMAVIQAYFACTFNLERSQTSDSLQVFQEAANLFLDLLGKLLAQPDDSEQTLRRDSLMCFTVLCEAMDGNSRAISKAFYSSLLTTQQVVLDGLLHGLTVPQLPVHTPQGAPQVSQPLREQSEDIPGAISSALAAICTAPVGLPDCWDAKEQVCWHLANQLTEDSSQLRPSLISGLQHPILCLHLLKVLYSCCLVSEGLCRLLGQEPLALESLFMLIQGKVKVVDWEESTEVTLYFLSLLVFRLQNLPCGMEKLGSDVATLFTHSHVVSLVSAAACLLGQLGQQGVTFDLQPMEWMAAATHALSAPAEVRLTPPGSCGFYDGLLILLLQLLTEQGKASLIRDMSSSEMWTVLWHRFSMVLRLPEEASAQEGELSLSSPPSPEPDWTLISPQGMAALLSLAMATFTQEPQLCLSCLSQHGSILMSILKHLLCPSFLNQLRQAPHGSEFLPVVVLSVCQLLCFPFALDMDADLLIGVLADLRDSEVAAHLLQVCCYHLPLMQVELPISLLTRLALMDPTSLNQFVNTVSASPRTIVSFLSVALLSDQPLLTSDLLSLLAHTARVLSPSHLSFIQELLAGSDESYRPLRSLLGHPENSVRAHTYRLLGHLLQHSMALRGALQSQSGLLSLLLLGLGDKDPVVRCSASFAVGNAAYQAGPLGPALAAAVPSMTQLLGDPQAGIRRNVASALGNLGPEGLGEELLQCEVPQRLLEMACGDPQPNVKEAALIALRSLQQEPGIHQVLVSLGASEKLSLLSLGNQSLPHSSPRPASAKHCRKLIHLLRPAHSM
The experiment in a line: Selectivity interaction (KinomeScan (DiscoverX)) EUB0000045b STK36.

The target in experiment [8] is CDK1/Cyclin A (Homo sapiens) (UniProt P06493+P20248). The experiment in a line: Selectivity interaction (LanthaScreen Eu Kinase Binding Assay) EUB0001632a CDK1. The class given is protein-complex assay. The following applies: at 10 µM.
Chain of CDK1/Cyclin A (Homo sapiens) (P06493 whole entry, looked up): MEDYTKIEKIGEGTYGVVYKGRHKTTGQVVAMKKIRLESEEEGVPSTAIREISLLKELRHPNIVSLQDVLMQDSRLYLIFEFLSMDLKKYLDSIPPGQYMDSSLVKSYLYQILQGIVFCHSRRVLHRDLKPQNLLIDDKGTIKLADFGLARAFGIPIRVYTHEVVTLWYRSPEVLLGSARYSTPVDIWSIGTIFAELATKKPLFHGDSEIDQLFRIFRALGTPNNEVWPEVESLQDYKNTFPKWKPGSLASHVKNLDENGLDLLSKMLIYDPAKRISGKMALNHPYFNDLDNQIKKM
Chain of CDK1/Cyclin A (Homo sapiens) (P20248 whole entry, looked up): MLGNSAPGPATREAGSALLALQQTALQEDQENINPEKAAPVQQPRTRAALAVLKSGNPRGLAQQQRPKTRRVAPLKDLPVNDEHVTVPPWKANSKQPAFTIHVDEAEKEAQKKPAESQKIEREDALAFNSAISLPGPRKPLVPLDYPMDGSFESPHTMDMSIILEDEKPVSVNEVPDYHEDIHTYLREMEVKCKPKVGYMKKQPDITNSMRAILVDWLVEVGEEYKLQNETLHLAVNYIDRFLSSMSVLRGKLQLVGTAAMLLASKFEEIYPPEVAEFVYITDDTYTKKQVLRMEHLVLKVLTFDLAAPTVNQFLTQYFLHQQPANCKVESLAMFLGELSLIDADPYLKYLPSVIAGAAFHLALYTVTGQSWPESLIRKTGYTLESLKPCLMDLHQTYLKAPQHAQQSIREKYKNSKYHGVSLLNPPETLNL
The target in experiment [9] is Ribosomal protein S6 kinase alpha-2 (Homo sapiens) (UniProt Q15349). The experiment in a line: Selectivity interaction (ActivX KiNativ screen (ex vivo kinase selectivity in human PBMCs)) EUB0001619a RPS6KA2. Type of experiment: cell-based. The following applies: PBMC, at 1 µM.
Chain of Ribosomal protein S6 kinase alpha-2 (Homo sapiens) (Q15349 whole entry): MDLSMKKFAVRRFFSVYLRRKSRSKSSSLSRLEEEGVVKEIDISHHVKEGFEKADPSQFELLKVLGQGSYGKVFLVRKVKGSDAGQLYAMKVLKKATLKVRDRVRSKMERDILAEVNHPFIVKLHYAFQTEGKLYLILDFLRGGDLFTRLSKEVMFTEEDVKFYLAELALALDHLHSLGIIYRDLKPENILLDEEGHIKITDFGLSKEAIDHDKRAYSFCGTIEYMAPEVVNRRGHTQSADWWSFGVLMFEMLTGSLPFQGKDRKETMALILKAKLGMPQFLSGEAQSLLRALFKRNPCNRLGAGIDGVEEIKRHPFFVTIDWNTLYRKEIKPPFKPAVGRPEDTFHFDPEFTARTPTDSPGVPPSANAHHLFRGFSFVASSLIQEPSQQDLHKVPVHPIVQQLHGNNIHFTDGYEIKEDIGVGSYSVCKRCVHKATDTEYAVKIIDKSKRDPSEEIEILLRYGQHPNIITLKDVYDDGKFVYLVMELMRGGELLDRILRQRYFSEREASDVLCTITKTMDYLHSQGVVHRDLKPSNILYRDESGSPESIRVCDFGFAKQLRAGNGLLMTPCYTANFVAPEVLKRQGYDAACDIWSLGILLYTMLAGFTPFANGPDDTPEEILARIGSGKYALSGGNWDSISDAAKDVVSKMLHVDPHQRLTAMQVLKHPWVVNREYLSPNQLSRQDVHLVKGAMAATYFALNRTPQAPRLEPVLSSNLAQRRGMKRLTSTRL

Chain of Cyclin-dependent kinase 8 (P49336 whole entry): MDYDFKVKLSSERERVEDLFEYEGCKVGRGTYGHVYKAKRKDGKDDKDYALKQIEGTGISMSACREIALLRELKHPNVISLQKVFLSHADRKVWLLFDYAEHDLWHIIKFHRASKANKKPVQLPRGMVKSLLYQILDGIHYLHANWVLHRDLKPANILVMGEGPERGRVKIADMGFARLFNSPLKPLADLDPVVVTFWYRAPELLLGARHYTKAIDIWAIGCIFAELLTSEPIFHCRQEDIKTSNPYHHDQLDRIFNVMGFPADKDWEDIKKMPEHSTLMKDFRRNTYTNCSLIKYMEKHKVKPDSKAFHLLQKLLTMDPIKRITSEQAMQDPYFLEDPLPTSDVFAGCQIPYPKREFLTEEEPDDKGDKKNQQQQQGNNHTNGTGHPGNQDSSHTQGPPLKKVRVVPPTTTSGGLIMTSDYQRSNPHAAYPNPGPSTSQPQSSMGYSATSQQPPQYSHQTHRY
Chain of Mitogen-activated protein kinase 9 (P45984 whole entry, looked up): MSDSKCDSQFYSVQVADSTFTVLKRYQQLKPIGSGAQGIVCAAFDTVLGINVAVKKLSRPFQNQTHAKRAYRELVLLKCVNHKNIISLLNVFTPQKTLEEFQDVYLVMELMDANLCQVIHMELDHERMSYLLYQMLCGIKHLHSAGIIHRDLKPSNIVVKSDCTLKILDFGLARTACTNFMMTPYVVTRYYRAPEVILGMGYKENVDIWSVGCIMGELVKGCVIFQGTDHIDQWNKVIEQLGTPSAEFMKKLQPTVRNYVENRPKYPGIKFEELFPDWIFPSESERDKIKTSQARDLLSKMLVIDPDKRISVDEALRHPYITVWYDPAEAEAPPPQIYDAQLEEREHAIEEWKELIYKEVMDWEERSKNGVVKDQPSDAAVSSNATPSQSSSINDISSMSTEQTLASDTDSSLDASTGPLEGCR
Chain of Mitogen-activated protein kinase kinase kinase kinase 5 (Homo sapiens) (Q9Y4K4 whole entry, looked up): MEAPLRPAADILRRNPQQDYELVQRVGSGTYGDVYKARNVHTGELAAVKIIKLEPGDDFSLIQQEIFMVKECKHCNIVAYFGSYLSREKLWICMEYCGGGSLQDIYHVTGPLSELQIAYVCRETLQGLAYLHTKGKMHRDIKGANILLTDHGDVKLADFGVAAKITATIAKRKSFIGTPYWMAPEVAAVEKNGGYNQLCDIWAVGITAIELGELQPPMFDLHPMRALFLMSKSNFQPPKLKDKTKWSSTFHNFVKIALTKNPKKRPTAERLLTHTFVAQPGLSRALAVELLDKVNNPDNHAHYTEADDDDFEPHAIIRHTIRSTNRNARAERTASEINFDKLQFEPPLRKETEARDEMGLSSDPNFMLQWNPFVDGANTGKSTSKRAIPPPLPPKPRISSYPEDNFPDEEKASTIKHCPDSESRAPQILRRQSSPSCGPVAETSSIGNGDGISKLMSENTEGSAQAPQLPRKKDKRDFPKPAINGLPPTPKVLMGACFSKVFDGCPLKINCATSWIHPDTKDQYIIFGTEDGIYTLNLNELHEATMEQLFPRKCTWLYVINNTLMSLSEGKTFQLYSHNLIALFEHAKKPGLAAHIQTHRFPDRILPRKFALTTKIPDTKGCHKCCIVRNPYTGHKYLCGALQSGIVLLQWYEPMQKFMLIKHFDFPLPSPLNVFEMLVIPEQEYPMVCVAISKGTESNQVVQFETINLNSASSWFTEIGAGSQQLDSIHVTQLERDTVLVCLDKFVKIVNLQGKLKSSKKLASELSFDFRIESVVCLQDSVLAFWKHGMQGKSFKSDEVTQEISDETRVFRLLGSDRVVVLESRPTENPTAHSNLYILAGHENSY

As to `Cc1cc([C@@H](C)Nc2ccccc2C(=O)O)c2nc(N3CCOCC3)cc(=O)n2c1` [AZD-6482], the % of control in experiment [1] was determined as 79%.

In experiment [2], `CN(C)C/C=C/C(=O)Nc1ccc(C(=O)N2CCCC(Nc3ncc(Cl)c(-c4c[nH]c5ccccc45)n3)C2)cc1` (stereo not given) displayed a % of control of 81%.

In [3], `Nc1cnc(N2CCc3cc(S(=O)(=O)Nc4c(F)cc(Cl)cc4F)cc(N4CCCC4=O)c32)nc1` [TP-020n] came in with a % of control of 100%.

In experiment [4], `CC(=O)Nc1cccc(-n2c(=O)n(C3CC3)c(=O)c3c(Nc4ccc(I)cc4F)n(C)c(=O)c(C)c32)c1` yielded a % of control of 101%.

Compound `CCC(=O)N1CCN(c2ccc(-n3c(=O)ccc4cnc5ccc(-c6cnc7ccccc7c6)cc5c43)cc2C(F)(F)F)CC1` gave a % of control in [5] of 40%.

On to `Cc1cnc(Nc2ccc(F)cc2Cl)nc1-c1c[nH]c(C(=O)N[C@H](CO)c2cccc(Cl)c2)c1`, for which the % of inhibition in [6] is 0%.

Consider `C=CC(=O)Nc1cc(-n2c(=O)ccc3cnc4ccc(-c5ccc(NS(C)(=O)=O)cc5)cc4c32)ccc1C`, for which the % of control in experiment [7] (at 1 µM) and in experiment [7] (at 10 µM) was 100% each time.

With `Cn1cc(-n2cnc3c(NCc4nc5cc(Cl)c(Cl)cc5[nH]4)nc(N4CCOCC4)nc32)cn1`, the % of inhibition in [8] is -246%.

For the compound `N#Cc1cccc(-c2c[nH]c3ncnc(N4CCOCC4)c23)c1`, in [9], the % of inhibition is 13%.
